This is an account of results in patent US7645764B2, “Kinase inhibitors and methods for using the same” (Roche Palo Alto LLC, priority 2006, dated 2010).

Data set [1] deals with T1, recombinant human b-Raf residues 416-end (wild type) (Homo sapiens, UniProt P15056).
T1 construct: recombinant human b-Raf residues 416-end with N-terminal GST-tag; purchased Upstate 14-530M; host or cells: baculovirus in Sf21 insect cells
As to the kind of experiment: b-Raf wild-type HTRF assay with 6H-MEK as substrate (dose response). Format: biochemical. To be noted: 6H-MEK substrate. The method, then: b-Raf Wild-Type HTRF Assay with 6H-MEK as Substrate (Dose Response)
This assay utilizes 6H-MEK as the substrate. Upon b-Raf WT phosphorylation, phosphorylated 6H-MEK is detected with rabbit anti-phospho-MEK1/2, Eu-labeled anti-rabbit, and APC-labeled anti-6H antibodies.
Assay Procedure: • (1) Prepare Kinase Assay Buffer (KAB): 50 mM HEPES (HyClone) pH7, 10 mM MgCl2, 1 mM DTT, 0.1 mM […], and 0.3 mg/ml BSA. • (2) Prepare 6H-MEK (150 nM) in KAB. Add 12 μl/well to the assay plate. • (3) Prepare ATP (66 μM) in KAB. • (4) Dilute compounds to 2.4 mM and any positive controls to 480 μM in DMSO. Perform 10-point 3× dilution in DMSO. […] For the cross talk factor sample, add 6 μl/well of Eu-anti rabbit IgG (9 nM). • (14) Incubate at room temperature for 1.5 hours. • (15) Read HTRF signals at 615 nm and 665 nm on the Envision. […]
Background: TR-FRET usually uses a lanthanide donor and a delayed reading to cut background.

The target of data set [2] is T2, recombinant human b-Raf residues 416-end containing a V600E mutation (Homo sapiens, UniProt P15056, V600E).
T2 construct: recombinant human b-Raf residues 416-end containing a V600E mutation; purchased Upstate 14-5M; host or cells: baculovirus in Sf21 insect cells
T2 sequence (P15056 416-766 V600E): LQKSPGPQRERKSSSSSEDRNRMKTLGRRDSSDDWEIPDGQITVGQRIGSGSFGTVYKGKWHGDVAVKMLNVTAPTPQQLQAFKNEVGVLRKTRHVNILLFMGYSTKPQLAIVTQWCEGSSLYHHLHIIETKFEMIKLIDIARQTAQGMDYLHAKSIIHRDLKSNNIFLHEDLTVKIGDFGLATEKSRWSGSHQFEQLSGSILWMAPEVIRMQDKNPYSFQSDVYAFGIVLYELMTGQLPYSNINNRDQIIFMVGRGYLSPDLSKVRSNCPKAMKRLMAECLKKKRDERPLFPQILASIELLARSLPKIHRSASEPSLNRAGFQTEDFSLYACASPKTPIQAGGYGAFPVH
Description: b-Raf V600E mutant HTRF assay with 6H-MEK as substrate (dose response). Format: biochemical. To be noted: 6H-MEK substrate. The method, then: b-Raf V600E Mutant HTRF Assay with 6H-MEK as Substrate (Dose Response)
This assay utilizes 6H-MEK as the substrate. Upon b-Raf V600E phosphorylation, phosphorylated 6H-MEK is detected with rabbit anti-phospho-MEK1/2, Eu-labeled anti-rabbit, and APC-labeled anti-6H antibodies.
Assay Procedure: • (1) Prepare Kinase Assay Buffer (KAB): 50 mM HEPES (HyClone) pH7, 10 mM MgCl2, 1 mM DTT, 0.1 mM […], and 0.3 mg/ml BSA. • (2) Prepare 6H-MEK (150 nM) in KAB. Add 12 μl/well to the assay plate. • (3) Prepare ATP (66 μM) in KAB. • (4) Dilute compounds to 2.4 mM and positive controls to 480 μM in DMSO. Perform 10-point 3× dilution in DMSO. […] For the cross talk factor sample, add 6 μl/well of Eu-anti rabbit IgG (9 nM). • (14) Incubate at room temperature for 1.5 hours. • (15) Read HTRF signals at 615 nm and 665 nm on the Envision. […]

In data set [3] the target is T3, p38 MAP kinase (Homo sapiens, UniProt Q16539).
T3 construct: made in house; host or cells: E. coli (co-expressed with SEK-1 and MEKK)
T3 sequence (Q16539 whole entry): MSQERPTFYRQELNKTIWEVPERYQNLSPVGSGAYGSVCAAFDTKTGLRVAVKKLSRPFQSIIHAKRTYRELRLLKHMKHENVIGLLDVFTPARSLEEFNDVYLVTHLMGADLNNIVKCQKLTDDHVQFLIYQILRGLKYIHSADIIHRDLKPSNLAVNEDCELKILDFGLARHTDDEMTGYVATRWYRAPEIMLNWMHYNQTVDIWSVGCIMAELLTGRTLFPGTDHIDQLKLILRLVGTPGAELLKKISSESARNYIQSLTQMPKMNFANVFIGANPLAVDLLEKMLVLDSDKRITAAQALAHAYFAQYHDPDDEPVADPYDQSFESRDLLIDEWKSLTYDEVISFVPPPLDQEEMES
Description: p38 MAP kinase in vitro assay (33P-ATP phosphate transfer to Myelin Basic Protein). Format: biochemical. The method, then:
This example illustrates a p38 (MAP) kinase in vitro assay useful for evaluating the compounds of the invention.
The p38 MAP kinase inhibitory activity of compounds of this invention in vitro was determined by measuring the transfer of the γ-phosphate from γ-^33P-ATP by p-38 kinase to Myelin Basic Protein (MBP), using a minor modification of the method described in Ahn, et al., J. Biol. Chem. 266:4220-4227 (1991).
The phosphorylated form of the recombinant p38 MAP kinase was co-expressed with SEK-1 and MEKK in E. Coli (see, Khokhlatchev, et al., J. Biol. Chem. 272:11057-11062 (1997)) and then purified by affinity chromatography using a Nickel column.
The phosphorylated p38 MAP kinase was diluted in kinase buffer (20 mM 3-(N-morpholino)propanesulfonic acid, pH 7.2, 25 mM β-glycerol phosphate, 5 mM ethylene glycol-bis(beta-aminoethyl ether)-N,N,N′,N′-tetraacetic acid, 1 mM sodium ortho-vanadate, 1 mM dithiothreitol, 40 mM magnesium chloride). Test compound dissolved in DMSO or only DMSO (control) was added and the samples were incubated for 10 min at 30° C. The kinase reaction was initiated by the addition of a substrate cocktail containing MBP and γ-^33P-ATP. […] The phosphorylated MBP was then separated from the residual γ-^33P-ATP using a phosphocellulose membrane (Millipore, Bedfrod, Mass.) and quantitated using a scintillation counter (Packard, Meriden, Conn.).

Data set [4] addresses T4, cloned human c-Raf (Homo sapiens, UniProt P04049).
T4 construct: made in house; host or cells: High-5 (Hi5) insect cells, baculovirus, co-infected with FLAG-vSrc
As to the kind of experiment: c-Raf HTRF assay with 6H-MEK as substrate (dose response). Format: biochemical. To be noted: 6H-MEK substrate. The method, then:
c-Raf HTRF Assay with 6H-MEK as Substrate (Dose Response)
This assay utilizes 6H-MEK as the substrate. Upon c-Raf phosphorylation, phosphorylated 6H-MEK is detected with rabbit anti-phospho-MEK1/2, Eu-labeled anti-rabbit, and APC-labeled anti-6H antibodies.
Procedure • (1) Prepare Kinase Assay Buffer (KAB): 50 mM HEPES (HyClone) pH7, 10 mM MgCl2, 1 mM DTT, 0.1 mM […], and 0.3 mg/ml BSA. • (2) Prepare 6H-MEK (150 nM) in KAB. Add 12 μl/well to the assay plate. • (3) Prepare ATP (66 μM) in KAB. • (4) Dilute compounds to 2.4 mM and any positive controls to 480 μM in DMSO. Perform 10-point 3× dilution in DMSO. […] For the cross talk factor sample, add 6 μl/well of Eu-anti rabbit IgG (9 nM). • (14) Incubate at room temperature for 1.5 hours. • (15) Read HTRF signals at 615 nm and 665 nm on the Envision. […]
N terminal EE-tagged c-Raf was expressed in High-5 cells. […] Protein concentration was determined by the BioRad DC method.

T1 sequence (P15056 416-766 limits assumed): as the sequence (P15056 416-766 V600E) above, with E185V counted along it
T4 sequence (P04049 whole entry): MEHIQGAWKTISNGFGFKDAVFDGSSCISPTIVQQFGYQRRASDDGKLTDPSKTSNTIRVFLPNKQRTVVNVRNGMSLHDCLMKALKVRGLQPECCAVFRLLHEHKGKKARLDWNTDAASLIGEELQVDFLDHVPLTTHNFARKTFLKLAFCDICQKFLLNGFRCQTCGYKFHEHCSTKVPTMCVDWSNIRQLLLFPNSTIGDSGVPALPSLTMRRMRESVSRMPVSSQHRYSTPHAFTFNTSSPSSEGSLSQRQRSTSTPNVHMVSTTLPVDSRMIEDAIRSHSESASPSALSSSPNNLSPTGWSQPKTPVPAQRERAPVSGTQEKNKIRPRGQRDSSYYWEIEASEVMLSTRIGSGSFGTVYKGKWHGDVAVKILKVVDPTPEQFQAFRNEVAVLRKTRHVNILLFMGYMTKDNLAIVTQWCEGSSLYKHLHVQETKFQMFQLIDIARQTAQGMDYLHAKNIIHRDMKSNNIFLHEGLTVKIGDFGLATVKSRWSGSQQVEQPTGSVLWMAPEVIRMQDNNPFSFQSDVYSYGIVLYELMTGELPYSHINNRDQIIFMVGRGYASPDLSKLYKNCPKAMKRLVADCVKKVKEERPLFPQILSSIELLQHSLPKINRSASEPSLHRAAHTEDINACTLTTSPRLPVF

As for `COC(=O)c1ccc(C)c(-c2cc3cnc(NC4CCOCC4)nc3n(C)c2=O)c1` [Compound 1, 4-Methyl-3-[8-methyl-7-oxo-2-(tetrahydro-pyran-4-ylamino)-7,8-dihydro-pyrido[2,3-d]pyrimidin-6-yl]-benzoic acid methyl ester], the melting point (in general, the temperature, or range, at which the solid turns liquid) was in the range of 122.5 to 126.5 °C.
Still for that read-out and setting: the same measure for `Cc1ccc(C#N)cc1-c1cc2cnc(NC3CCOCC3)nc2n(C)c1=O` [Compound 12, 4-Methyl-3-[8-methyl-7-oxo-2-(tetrahydro-pyran-4-ylamino)-7,8-dihydro-pyrido[2,3-d]pyrimidin-6-yl]-benzonitrile]: 253.5 to 254.1 °C; for `Cc1ccc(-c2nnc[nH]2)cc1-c1cc2cnc(NC3CCOCC3)nc2n(C)c1=O` [Compound 11, 8-Methyl-6-[2-methyl-5-(4H-[1,2,4]triazol-3-yl)-phenyl]-2-(tetrahydro-pyran-4-ylamino)-8H-pyrido[2,3-d]pyrimidin-7-one]: 214.9 to 216 °C.
Take `CNC(=O)c1ccc(C)c(-c2cc3cnc(NC4CCOCC4)nc3n(C)c2=O)c1` [Compound 8, 4,N-Dimethyl-3-[8-methyl-7-oxo-2-(tetrahydro-pyran-4-ylamino)-7,8-dihydro-pyrido[2,3-d]pyrimidin-6-yl]-benzamide]: the half-maximal inhibitory concentration (IC50) (usually the concentration that gives 50% inhibition) in data set [1] was approximately 20 nM; in data set [2], approximately 10 nM.
As for `Cc1ccc(-c2ncc[nH]2)cc1-c1cc2cnc(NC3CCOCC3)nc2n(C)c1=O` [Compound 13, 6-[5-(1H-Imidazol-2-yl)-2-methyl-phenyl]-8-methyl-2-(tetrahydro-pyran-4-ylamino)-8H-pyrido[2,3-d]pyrimidin-7-one], in data set [3], the IC50 is approximately 0.66 nM.
The compound `Cc1nnc(-c2ccc(C)c(-c3cc4cnc(NC5CCOCC5)nc4n(C)c3=O)c2)o1` [Compound 4, 8-Methyl-6-[2-methyl-5-(5-methyl-[1,3,4]oxadiazol-2-yl)-phenyl]-2-(tetrahydro-pyran-4-ylamino)-8H-pyrido[2,3-d]pyrimidin-7-one] came in with an IC50 in data set [4] of approximately 190 nM.
